Measurements as given in PubChem BioAssay (NCI).
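Dose response: 5 concentrations. Exposure: 48 h. Format: 96-well plates. Endpoint: linear interpolation; highest concentration if not reached. TGI: concentration producing complete growth inhibition.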

What was measured:
Test in all cases: inhibition of tumour cell growth, NCI panel, 48 h
[1] = system: KM12 colon
[2] = system: HS 578T breast
[3] = system: UACC-62 melanoma
[4] = system: SN12C renal
[5] = system: ACHN renal
[6] = system: T-47D breast
[7] = system: SR leukemia
[8] = system: OVCAR-8 ovarian
[9] = system: NCI/ADR-RES ovarian
[10] = system: M14 melanoma

| SMILES | TGI [1] [µM] | TGI [2] [µM] | TGI [3] [µM] | TGI [4] [µM] | TGI [5] [µM] | TGI [6] [µM] | TGI [7] [µM] | TGI [8] [µM] | TGI [9] [µM] | TGI [10] [µM] |
| --- | --- | --- | --- | --- | --- | --- | --- | --- | --- | --- |
| CN(C)CCN1C(=O)N(CCN(C)C)c2c3cc(O)ccc3nc3c([N+](=O)[O-])ccc1c23 | 23.3 | 45.8 | 30.8 | 23.6 | 19.1 | 39.2 | 0.807 | 36 | 86.3 |  |
| O=C1CCC(CCc2nc3ccccc3[nH]2)(c2ccccc2)C(=O)N1 (stereo not given) | > 100 | > 100 | > 100 | > 100 | > 100 | > 100 | > 100 | > 100 | > 100 | > 100 |
| O=C(/C=C/CC(O)(c1ccccc1)c1ccccc1)Nc1ccccc1Cl | > 100 |  | > 100 | > 100 | > 100 |  | > 100 | > 100 |  | > 100 |
| C=C1C[C@@H]2CC[C@@]34CC5O[C@H]6C(O[C@H]7CC[C@H](CC(=O)O[C@@H]8[C@@H](C)[C@@H]9O[C@@H]%10C[C@]%11(C[C@@H]%12O[C@]%13(C[C@H](C)[C@@H]%14O[C@@H]%15CC(C(COC(C)=O)OC(C)=O)O[C@@H]%15C[C@@H]%14O%13)C[C@H](C)[C@@H]%12O%11)O[C@@H]%10C[C@@H]9O[C@H]8CC8O[C@@H](CC[C@@H]1O2)C[C@@H](C)C8(O)CO)O[C@@H]7[C@@H]6O3)[C@H]5O4 (stereo not given in full) | > 0.792 | 0.801 | > 1 | > 1 | > 1 | > 0.924 | > 1 | > 1 | > 1 | > 1 |
| CC1OC2OC3C(OCC(O)C3O)OC(=O)[C@]34CCC(C)(C)CC3C3=CCC5[C@@]6(C)C[C@H](O)[C@H](OC7OC(CO)C(O)C(O)C7OC7OC(COC(=O)CC(C)(O)CC(=O)OC1C(OC1OC(CO)C(O)C(O)C1O)C2O)C(O)C(O)C7O)[C@@](C)(CO)C6CC[C@@]5(C)[C@]3(C)CC4 (stereo not given in full) | 8.24 | 18.6 | 3.38 | 14.8 | 8.36 | 12.6 | 12.4 | 13.1 | 11.7 | 8.44 |
| Brc1ccc(/C(N=N/C(=N\Sc2ccccc2)c2ccc(Br)cc2)=N/Sc2ccccc2)cc1 | > 100 | > 100 | > 100 | > 100 | > 100 | > 100 | > 100 | > 100 | > 100 | > 100 |
| C[N+]1(CCCCN2c3ccccc3Sc3cc(N=[N+]=[N-])ccc32)CCN(C(=O)CCNC(=O)Cc2ccc(C(=O)c3ccccc3)cc2)CC1 | 61.2 | > 83.1 | > 69.2 | 53.5 | 37.2 | > 76.4 | 65.5 | > 100 | > 91.1 | > 72.9 |
| CC(C)NC(=O)OCc1c(COC(=O)NC(C)C)n(C)c2c1ccc1cc(Cl)c(Cl)cc12 |  | 68.9 | 28 |  | 24 | 18.8 | 30.6 | 23.8 | 36.8 | 29.2 |
| COc1ccc2c(c1)-c1nc(=S)n(CCN(C)C)c3ccc([N+](=O)[O-])c(c13)N2 | 6.27 | 7.69 | 23.5 | 2.05 | 4.97 | 12.5 | 2.07 | 2.2 | 3.61 | 7.43 |
| Brc1ccc2[nH]cc(-c3csc(-c4c[nH]c5ccc(Br)cc45)n3)c2c1 | 2.95 | > 20.8 | 4.09 | 10.3 | 4.8 | 12.2 | 2.99 | 7.22 | 6.29 | 2.87 |
| CC(=O)Oc1ccc2c(c1)O/C(=C\c1ccc(O)cc1)C2=O | > 100 | > 100 | > 100 | > 100 | > 100 | > 100 | > 100 | > 100 | > 100 | > 100 |
| COc1ccc(C(=O)/C=C/c2ccc(OCCCCCCCCCCOc3ccc(/C=C/C(=O)c4ccc(OC)c(OC)c4)cc3)cc2)c(OC)c1 | > 100 | > 100 | > 100 | > 100 | > 100 | > 100 | > 100 | > 100 | > 100 | > 100 |
| Nc1cc2nc(-c3ccccc3)cn2cn1 | > 100 |  | > 100 | > 100 | > 100 | > 100 |  | > 100 | > 100 | > 100 |
| CSc1ncnc2c1cnn2Cc1cn(COCC(O)CO)nn1 (stereo not given) | > 100 |  | > 100 | > 100 | > 100 | > 100 | > 100 | > 100 | > 100 | > 100 |
| CN1C2CCC1C(CO)C(=O)C2 (stereo not given) | > 100 | > 100 | > 100 |  | > 100 | 48.1 | 75.7 | > 100 | > 100 |  |
| CCOC(=O)c1c(-c2ccc(OC)cc2)c(C#N)c(=S)n(C2OC(CO)C(O)C(O)C2O)c1C (stereo not given) | > 100 |  |  | > 100 |  | > 100 | > 100 | > 100 | > 100 | > 100 |
| C[C@@H](CCO)OC1OC(COC(=O)C(C)(C)C)C(OC(=O)C(C)(C)C)C(OC(=O)C(C)(C)C)C1OC(=O)C(C)(C)C (stereo not given in full) |  | > 100 | > 100 | > 100 | > 100 | > 100 | > 100 | > 100 | > 100 | > 100 |
| COC(=O)c1ccc2cc(O)ccc2c1 | > 100 |  | > 100 | > 100 | > 100 | > 100 | 81.9 | > 100 | > 100 | > 100 |
| CC1=CC(O)CC(C)(C)C1/C=C/C(C)=C/C=C/C(C)=C/C=C/C=C(C)/C=C/C=C(C)/C=C/C1=C(C)CC(O)CC1(C)C (stereo not given) | > 100 | > 100 | 29.8 |  | 31.1 | 44.7 | > 100 | 39.5 | 59.8 | 29.8 |
| Nn1nnc2ccccc21 |  |  | > 100 | > 100 | > 100 | > 100 | > 100 | > 100 | > 100 | > 100 |
| CC(C)(C)[Si](C)(C)OC1CCOC1(O)c1ccccn1 (stereo not given) | > 100 | > 100 | > 100 | > 100 | > 100 | > 100 |  | > 100 | > 100 | > 100 |
